Data reported in patent US10570117B2, “Phenylimidazole compound” (Otsuka Pharmaceutical Factory, Inc., priority 2015, dated 2020).
Converted amounts (≈) assume the structure as drawn. Like-named read-outs stand apart in the source and are kept apart here.

Key:
[1] = Solubility in gastric juice or intestinal juice model fluid (precipitation method using DMSO); assay type: physicochemical; conditions: room temperature
Procedure, shortened: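 Dissolved amount (μg/mL) quantified by UV of filtrate versus pre-made calibration curves. Precipitation approach: DMSO solutions spiked into pH 1.2 (JP 1st fluid) or pH 6.8 (JP 2nd fluid) medium, shaken at room temperature for 24 h before insolubles were filtered off.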

[2] = system: lipoprotein lipase (LPL) gene; test: LPL mRNA elevating action (RT-PCR quantification of LPL mRNA in C2Cl2 cells); assay type: cell-based, mouse; conditions: Mus musculus, 24 h, compound 10 μM, ratio relative to the amount of LPL mRNA in cells with DMSO only, read-out: Rate of increase in LPL mRNA
Procedure, shortened: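 Read-out is LPL mRNA relative to vehicle (DMSO = 1), measured by reverse transcription and 20-cycle real-time PCR. Cells were the mouse striated-muscle line C2Cl2, treated 24 h with 10 μM compound in DMEM containing 10% FBS.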

[3] = pH 1.2, simulated gastric fluid, kinetic from dmso stock, 1st fluid for Disintegration Test of Japanese Pharmacopoeia (pH: 1.2), read-out: Solubility (μg/mL) 1st fluid
[4] = pH 6.8, kinetic from dmso stock, 2nd fluid for Disintegration Test of Japanese Pharmacopoeia (pH: 6.8), read-out: Solubility (μg/mL) 2nd fluid

SMILES	solubility at 24 h [1, 3] [µg/mL]	solubility at 24 h [1, 4] [µg/mL]	melting point	fold induction at 10 µM [2]
COc1cc(-c2c[nH]c(-c3ccc(Cl)nc3)n2)c(OC)cc1OCc1ccc(C(F)(F)F)cn1 [Example 56]	4.8 (≈ 9.78 µM)	0.8 (≈ 1.63 µM)	204 to 206 °C	2.57
Fc1ccc(-c2ncc(-c3ccc(OCc4ncc(C(F)(F)F)cc4F)cc3F)[nH]2)cn1 [Example 369]	35.9 (≈ 79.7 µM)	< 0.3	167 to 172 °C	1.26
COc1cc(OCc2ccc(C(F)(F)F)cn2)ccc1-c1[nH]c(C2CCCC(F)(F)C2)nc1Br (stereo not drawn) [Example 183]	99 (≈ 181 µM)	1.1 (≈ 2.01 µM)	170 to 171 °C	4.26
COc1cc(OCc2ccc(C(F)(F)F)nc2)ccc1-c1nc(-c2ccc(Cl)nc2)[nH]c1C [Example 49]	8.7 (≈ 18.3 µM)	0.9 (≈ 1.9 µM)	196 to 199 °C	3.46
COc1cc(OCc2ccc(C(F)(F)F)cn2)ccc1-c1c[nH]c(-c2cccnc2)n1 [Example 89]	85.4 (≈ 200 µM)	1.8 (≈ 4.22 µM)	240 to 242 °C	1.69
COc1cc(OCc2ncc(C(F)(F)F)cc2F)ccc1-c1[nH]c(C2CC2)nc1Cl [Example 377]	84.6 (≈ 191 µM)	0.7 (≈ 1.58 µM)	151 to 154 °C	1.88
CCc1cc(OCc2ncc(C(F)(F)F)cc2F)ccc1-c1[nH]c(-c2ccc(F)nc2)nc1Cl [Example 364]	< 0.4	< 0.4	187 to 188 °C	2.65
COc1cc(-c2[nH]c(C3CCC3)nc2Cl)ccc1OCc1ncc(C(F)(F)F)cc1F [Example 374]	88.3 (≈ 194 µM)	1.2 (≈ 2.63 µM)	159 to 162 °C	2.6
COc1cc(OCc2ccc(C(F)(F)F)cn2)ccc1-c1c(Br)nc(-c2ccc(F)nc2)n1C [Example 303]	84.3 (≈ 157 µM)	< 0.4	130 to 132 °C	3.29
Fc1ccc(-c2nc(Br)c(-c3ccc(OCc4ncc(C(F)(F)F)cc4F)cc3)[nH]2)cn1 [Example 345]	< 0.4	< 0.4	155 to 158 °C	2.39
Fc1ccc(-c2nc(Cl)c(-c3ccc(OCc4ncc(C(F)(F)F)cc4F)cc3)[nH]2)cn1 [Example 355]	< 0.3	< 0.3	180 to 183 °C	3.59
COc1cc(OCc2ncc(Cl)cc2F)ccc1-c1cnc(-c2ccc(Cl)nc2)[nH]1 [Example 104]	20.6 (≈ 46.3 µM)	0.7 (≈ 1.57 µM)	211 to 218 °C	2.27
COc1cc(-c2[nH]c(C3CC(F)(F)C3)nc2Cl)ccc1OCc1ccc(C(F)(F)F)nc1 [Example 179]	25.8 (≈ 54.5 µM)	2.3 (≈ 4.85 µM)	170 to 174 °C	2.66
COc1cc(OCc2ccc(C(F)(F)F)cn2)ccc1-c1nc(C2CCC(F)(F)CC2)n(CC2CC2)c1Cl [Example 292]	> 111	< 9.9	144 to 146 °C	2.81
Oc1cc(OCc2ncc(C(F)(F)F)cc2F)ccc1-c1[nH]c(-c2ccc(F)nc2)nc1Br [Example 408]	1.9 (≈ 3.6 µM)	< 0.4	202 to 204 °C	1.24
Cc1cc(OCc2ncc(C(F)(F)F)cc2F)ccc1-c1[nH]c(-c2ccc(F)nc2)nc1Cl [Example 352]	9.8 (≈ 20.4 µM)	6 (≈ 12.5 µM)	204 to 206 °C	5.48
COc1cc(-c2nc(-c3ccc(F)nc3)[nH]c2Cl)ccc1OCc1ncccc1F [Example 212]	76.9 (≈ 179 µM)	0.5 (≈ 1.17 µM)	161 to 163 °C	2.22
COc1cc(O[C@H](C)c2ccc(C(F)(F)F)cc2)ccc1-c1[nH]c(-c2ccc(F)nc2)nc1Cl [Example 290]	< 0.3	27.6 (≈ 56.1 µM)	137 to 139 °C	2.64
COc1cc(OCc2ccc(C(F)(F)F)nc2)ccc1-c1nc(-c2ccc(Cl)cn2)[nH]c1C [Example 27]	5.9 (≈ 12.4 µM)	0.5 (≈ 1.05 µM)	157 to 159 °C	2.45
COc1cc(OCc2ncc(C(F)(F)F)cc2F)ccc1-c1cnc(C(C)C)[nH]1 [Example 381]	78.2 (≈ 191 µM)	66.9 (≈ 163 µM)	84 to 89 °C	2.19

SMILES	solubility at 24 h [1, 3] [µg/mL]	solubility at 24 h [1, 4] [µg/mL]	melting point	fold induction at 10 µM [2]
COc1cc(OCc2ccc(C(F)(F)F)nc2)ccc1-c1nc(-c2ccc(F)nc2)n(C)c1C#N [Example 410]	1.1 (≈ 2.28 µM)	< 0.3	165 to 167 °C	0.42
COc1cc(OCc2ccncn2)ccc1-c1c[nH]c(-c2ccc(Cl)nc2)n1 [Example 45]	27.8 (≈ 70.6 µM)	< 0.3	221 to 224 °C	1.09
COc1cc(OCc2ccc(C(F)(F)F)[n+]([O-])c2)ccc1-c1cnc(-c2ccc(F)nc2)[nH]1 [Example 314]	50.2 (≈ 109 µM)	0.9 (≈ 1.95 µM)	234 to 239 °C	1.66
COc1cc(OCc2ccc(C(F)(F)F)nc2)ccc1-c1nc(-c2ccc(F)nc2)[nH]c1C [Example 24]	53.6 (≈ 117 µM)	1.8 (≈ 3.93 µM)	169 to 171 °C	2.94
COc1cc(OCc2cnc(C)cn2)ccc1-c1c[nH]c(-c2ccc(F)nc2)n1 [Example 122]	71.8 (≈ 183 µM)	2.9 (≈ 7.41 µM)	167 to 170 °C	1.7
Cc1cc(O)ccc1-c1cnc(-c2ccc(F)nc2)[nH]1 [Example 350]	53.3 (≈ 198 µM)	51 (≈ 189 µM)	218 to 220 °C	1.38
COc1cc(OCc2ccc(C(F)(F)F)cn2)ccc1-c1c[nH]c(-c2ccc(F)nc2)n1 [Example 124]	18.7 (≈ 42.1 µM)	< 1.6	141 to 144 °C	2.28
COc1cc(OCc2ncc(C(F)(F)F)cc2F)ccc1-c1[nH]c(C2CCC(F)(F)CC2)nc1Cl [Example 336]	89.3 (≈ 172 µM)	0.4 (≈ 0.769 µM)	172 to 174 °C	3.23
COc1cc(-c2[nH]c(C3CC3)nc2Cl)ccc1OCc1ncc(C(F)(F)F)cc1F [Example 378]	81.6 (≈ 185 µM)	7.5 (≈ 17 µM)	161 to 165 °C (dec.)	1.24
COc1cc(-c2[nH]c(C3CCC(F)(F)CC3)nc2Cl)ccc1OCc1ccc(C(F)(F)F)nc1 [Example 203]	63.8 (≈ 127 µM)	< 1.8	164 to 167 °C	5.47
COc1cc(-c2[nH]c(C3CC(F)(F)C3)nc2Cl)ccc1OCc1ccc(C(F)(F)F)cn1 [Example 191]	25.9 (≈ 54.7 µM)	1.7 (≈ 3.59 µM)	201 to 203 °C (dec.)	4.06
COc1c(OCc2ccc(C(F)(F)F)nc2)ccc(-c2[nH]c(C3CCC(F)(F)CC3)nc2Br)c1OC [Example 199]	> 115	< 10.2	162 to 165 °C	5.05
COc1cc(OCc2ncc(C(F)(F)F)cc2F)ccc1-c1cnc(C(C)(C)C)[nH]1 [Example 379]	79.9 (≈ 189 µM)	72.9 (≈ 172 µM)	141 to 144 °C	2.87
COc1cc(OCc2ccc(C(F)(F)F)nc2)ccc1-c1[nH]c(C2CC(F)(F)C2)nc1Cl [Example 181]	93.4 (≈ 197 µM)	< 0.3	199 to 201 °C	4.53
COc1cc(OCc2ccc(C(F)(F)F)nc2)c(C)cc1-c1[nH]c(-c2ccc(F)nc2)nc1Cl [Example 202]	8.8 (≈ 17.9 µM)	< 1.8	213 to 215 °C (dec.)	3.15
COc1cc(-c2cnc(C3CCC(F)(F)CC3)[nH]2)ccc1OCc1ncc(C(F)(F)F)cc1F [Example 323]	78.3 (≈ 161 µM)	17 (≈ 35 µM)	157 to 159 °C	1.72
COCCn1c(-c2ccc(F)nc2)nc(Cl)c1-c1ccc(OCc2ccc(C(F)(F)F)cn2)cc1OC [Example 297]	89.8 (≈ 167 µM)	7 (≈ 13 µM)	131 to 136 °C	2.76
COc1cc(OCc2ncc(Br)cc2F)ccc1-c1[nH]c(-c2ccc(F)nc2)nc1Cl [Example 175]	10 (≈ 19.7 µM)	2.5 (≈ 4.92 µM)	122 to 124 °C	3.94
Fc1ccc(-c2ncc(-c3ccc(OCc4ncc(C(F)(F)F)cc4F)cc3)[nH]2)cn1 [Example 344]	85.9 (≈ 199 µM)	4.6 (≈ 10.6 µM)	174 to 177 °C	1.83
